For 2 compounds, Ki and EC90 results are on record in patent US20070191374A1, “Substituted cinnolin-4-ylamines” (Neurogen Coroperation, priority 2004, published 2007).

Assay [1] addresses VR (Homo sapiens, UniProt Q8NER1). The conditions noted are these: typical value, background section; read-out: K; value (binds to VR); cited from earlier work.
For assay [2], the target named is T1, human capsaicin receptor (Homo sapiens, UniProt Q8NER1).
T1 construct: pBK-CMV expression construct encoding the full length human capsaicin receptor; expressed in transfected cells
In words: Calcium mobilization assay. The class given is cell-based. The conditions noted are these: cells expressing human capsaicin receptor, FLUO-3 fluorescence; positive control in agonist assay; read-out: approximate EC90 concentration. The method, then: This Example illustrates representative calcium mobilization assays for use in evaluating test compounds for agonist and antagonist activity.
The culture medium is emptied from the 96 well plates and FLUO-3 AM calcium sensitive dye (Molecular Probes, Eugene, Oreg.) is added to each well (dye solution: 1 mg FLUO-3 AM, 440 μL DMSO and 440 μl 20% pluronic acid in DMSO, diluted 1:250 in Krebs-Ringer HEPES (KRH) buffer (25 mM HEPES, 5 mM KCl, 0.96 mM NaH2PO4, 1 mM MgSO4, 2 mM CaCl2, 5 mM glucose, 1 mM probenecid, pH 7.4), 50 μl diluted solution per well). Plates are covered with aluminum foil and incubated at 37° C. for 1-2 hours in an environment containing 5% CO2. […]
To measure the ability of a test compound to agonize or antagonize a calcium mobilization response in cells expressing capsaicin receptors to capsaicin or other vanilloid agonist, the EC50 of the agonist capsaicin is first determined. […] Capsaicin-induced calcium mobilization is monitored using either FLUOROSKAN ASCENT (Labsystems; Franklin, Mass.) or FLIPR (fluorometric imaging plate reader system; Molecular Devices, Sunnyvale, Calif.) instruments. […] In this equation, y is the maximum fluorescence signal, x is the concentration of the agonist or antagonist (in this case, capsaicin), a is the Emax, b corresponds to the EC50 value and c is the Hill coefficient. […]

SMILES strings stand for the structures.

T1 sequence (Q8NER1 whole entry): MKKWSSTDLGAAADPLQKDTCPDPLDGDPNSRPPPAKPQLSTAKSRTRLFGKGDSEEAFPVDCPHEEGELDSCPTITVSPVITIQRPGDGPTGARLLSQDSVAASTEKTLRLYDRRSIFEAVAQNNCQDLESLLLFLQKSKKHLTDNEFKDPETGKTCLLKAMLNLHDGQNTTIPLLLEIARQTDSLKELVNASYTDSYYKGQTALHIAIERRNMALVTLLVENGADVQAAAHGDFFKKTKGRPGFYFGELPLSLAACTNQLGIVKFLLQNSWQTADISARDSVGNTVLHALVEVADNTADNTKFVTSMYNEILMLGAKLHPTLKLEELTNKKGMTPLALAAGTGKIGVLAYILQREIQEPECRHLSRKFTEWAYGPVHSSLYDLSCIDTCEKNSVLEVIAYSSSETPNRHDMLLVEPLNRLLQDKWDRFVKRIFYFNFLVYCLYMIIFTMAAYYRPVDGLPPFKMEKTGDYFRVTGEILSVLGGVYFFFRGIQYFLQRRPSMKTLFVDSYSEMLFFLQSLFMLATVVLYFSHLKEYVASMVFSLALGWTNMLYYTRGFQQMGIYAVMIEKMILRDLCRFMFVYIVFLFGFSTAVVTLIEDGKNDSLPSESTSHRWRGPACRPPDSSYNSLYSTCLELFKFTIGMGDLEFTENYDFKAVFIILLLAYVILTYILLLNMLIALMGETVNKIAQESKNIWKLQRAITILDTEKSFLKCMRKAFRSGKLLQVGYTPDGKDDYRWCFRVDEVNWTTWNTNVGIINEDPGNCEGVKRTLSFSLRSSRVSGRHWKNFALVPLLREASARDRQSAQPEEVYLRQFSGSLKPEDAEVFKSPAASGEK
VR, sequence (Q8NER1 whole entry): as above

Regarding `Cl.Cl.Cl.Cl.Cl.Cl.N.N.N.N.N.N.N.N.N.N.N.N.N.N.[O-2].[O-2].[Ru+3].[Ru+3].[Ru+4]` [ruthenium red], the Ki in assay [1] was no less than 140000 nM.

Turning to `COc1cc(CNC(=O)CCCC/C=C/C(C)C)ccc1O` [capsaicin], the EC90 in assay [2] was roughly 100 nM.
